Measurements: patent US4443619A, “Chlorocitric acids” (Hoffmann-La Roche Inc., priority 1981, dated 1984)

Experiments:
[1] = Food intake in dogs, pyramiding oral doses (Examples 26 and 27); format: in vivo, beagle dogs
Description: Twelve beagle dogs of both sexes weighing 7.6-12.2 kg were used for this test. The test compounds were contained in gelatin capsules for oral administration to two dogs of each sex. The animals were weighed and food consumption calculated daily excluding weekends throughout the test period. Each animal received 800 grams of diet daily consisting of 400 grams of Wayne pellet dog food mixed with 400 ml distilled water. The animals received pyramiding oral doses of the test compound over the three week period. On Monday and Tuesday of the first week the animals were weighed and food consumption was recorded (control). The animals received 3 mg/kg on Wednesday and 10 mg/kg on Friday of the first week. Doses of 30, 100 and 300 mg/kg were administered on Monday, Wednesday and Friday respectively during the second week. A final dose of 1000 mg/kg was administered on Monday of the third week.
Food intake was determined by the procedure by pyramiding doses described in Example 26.

[2] = system: fatty acid and cholesterol syntheses; experiment: Inhibition of fatty acid, lipid and cholesterol synthesis (summary statements)
[3] = Body composition of meal-fed rats, 16 day study (Example 20); format: in vivo, Charles River female rats; conditions: 16 days
Description: Two month old Charles River female rats (Charles River Breeding Laboratories, Wilmington, Mass.) were individually housed in wire-bottomedcages in a temperature-regulated (22° C.) light-controlled room (12 hr light, 6 a.m. to 6 p.m. and 12 hr dark, 6 p.m. to 6 a.m.). […] (1) control, (2) (-)-threo-chlorocitric acid (1.0 mmoles/kg, 227 mg/kg) administered by oral intubation 30 min before the 3 hr meal, and (3) (-)-threo-chlorocitric acid (1.1 mmoles/kg, 250 mg/kg as a dietary admixture for the 3 hr meal. Treatment was continued for 16 days. After 16 days of treatment, rats were killed by decapitation and blood was removed. […] C. Sullivan, et al, Am. J. Clinical Nutrition, 30 767 (1977). […] Total carcass lipid data are expressed in grams of percentages of carcass weight. An aliquot of saponified carcass extract was neutralized and total carcass nitrogen was determined using the Kjeldahl procedure described in "Hawks" Physiological Chemistry," B. L. Oser, ed., McGraw Book Co., New York, N.Y., 1965, page 1214. Carcass protein data are expressed in grams and percentages of carcass weight.

Stomach Emptying = experiment: Effect on stomach emptying ([14C]glucose load) in rats (Example 25); format: in vivo; conditions: 0.33 mmoles/kg oral, 60 min after [14C]glucose load, mean ± S.E.
Description: Rats were trained to consume a 3 hr 70% glucose meal from 8 a.m. to 11 a.m. daily. On the experimental day, compounds were administered orally by intubation 30 min before a [^14 C]glucose load was given also by intubation. […] Sixty minutes later the rats were killed by decapitation; blood and stomachs were collected on ice.
Data are expressed as follows: dpm×10^3 per ml of serum and dpm×10^3 per stomach.

[4] = Anorectic activity, body weight and carcass analysis in mammals (summary statements); format: in vivo
Cholesterol Synthesis = experiment: Cholesterol synthesis in isolated rat hepatocytes (Example 23); format: cell-based, rat (female Charles River); conditions: 2 mM, 60 min, 37° C., 2000 µM
Description: Female Charles River rats were fasted 48 hr, then meal-fed a 1% corn oil, 70% glucose diet for 7 to 14 days from 8 to 11 a.m. The isolated rat hepatocytes were prepared by perfusing the liver in situ. The hepatocytes were incubated in an oscillating water bath at 37° C. for 60 min. […] All incubations were done in triplicate and all experiments were repeated at least twice. […] The contents of the center well were transferred to scintillation counting fluid and ^14 CO2 content was determined. […] The media was then acidified, extracted with hexane, and the extract counted (to determine the rate of lipogenesis). The conversion of ^3 H2 O and [^14 C]alanine into fatty acids or sterols was determined in a PDS/3, Mark II liquid scintillation counting system.

[5] = Anorectic effect in 8 hour meal-fed Zucker rats (Example 17); format: in vivo, lean (Fa/-) and obese (fa/fa)
Description: Lean (Fa/-) Zucker rats and obese (fa/fa) Zucker rats of both sexes were individually housed in wire-bottomed cages in a temperature-regulated (22° C.) light-controlled room (12 hr light, 6 a.m. to 6 p.m. and 12 hr dark, 6 p.m. 6 a.m.). The animals were fed a high carbohydrate (70% glucose) diet ad libitum for 13 days, dosed with the indicated compounds by oral intubation for 9 days and allowed to recover for 3 days. The animals were then meal fed from 8 a.m. to 4 p.m. for a period of 5 days, following which they were continued on the same meal schedule for an additional 6 days. During the 6-day period, the animals were administered the indicated compounds by oral intubation at 8 a.m. and 12 p.m. Food cups were weighed immediately after the meal.

[6] = Body weight and food intake in meal-fed rats, oral administration, 17 day study (Example 21); format: in vivo, Charles River female rats; conditions: 17 days
Description: Two month old Charles River female rats (Charles River Breeding Laboratories, Wilmington, Mass.) were individually housed in wire-bottomedcages in a temperature-regulated (22° C.) light-controlled room (12 hr light, 6 a.m. to 6 p.m. and 12 hr dark, 6 p.m. to 6 a.m.). […] On the 8th day, the animals were administered water or (-)-threo-chlorocitric acid at the indicated concentration by oral intubation 30 min before the 3 hr meal. Treatment was continued for 17 days. Food cups were weighed immediately after the meal. The amount of body weight gained and food consumed during the period was determined.

[7] = test day 20, no dose, (±) one animal, (+) and (-) two animals
[8] = dietary admixture, 1.1 mmoles (250 mg)/kg
[9] = oral intubation, 1.0 mmoles (227 mg)/kg
[10] = G-70, 0.25 mmoles (57 mg)/kg oral
[11] = G-70, 0.50 mmoles (114 mg)/kg oral
[12] = G-70, 1.00 mmoles (227 mg)/kg oral

O=C(O)C[C@@](O)(C(=O)O)[C@@H](Cl)C(=O)O [(-)-threo-Chlorocitric acid, (-)-threo-chlorocitric acid]
Food Consumption, % of control [1, 7]: 82 % of control
Food consumption [1, 7]: 607 ± 193 g
Food consumption ([1]; test days -2, -1, before dosing (control period)): 743 ± 54 g
metabolic activity on lipid (fatty acid) and cholesterol syntheses [2]: devoid of metabolic activity as an inhibitor of lipid and cholesterol syntheses
Carcass Lipid, % of carcass weight [3, 8]: 4.01 ± 0.45 % of carcass weight
Carcass Lipid, total [3, 8]: 7.01 ± 0.92 g
Carcass Nitrogen, % of carcass weight [3, 8]: 4.10 ± 0.14 % of carcass weight
Carcass Nitrogen, total [3, 8]: 7.16 ± 0.29 g
Carcass Weight [3, 8]: 176 ± 8 g
Carcass Lipid, % of carcass weight [3, 9]: 1.94 ± 0.13 % of carcass weight
Carcass Lipid, total [3, 9]: 2.74 ± 0.19 g
Carcass Nitrogen, % of carcass weight [3, 9]: 4.27 ± 0.22 % of carcass weight
Carcass Nitrogen, total [3, 9]: 6.57 ± 0.30 g
Carcass Weight [3, 9]: 155 ± 4 g
Serum, total per ml (Stomach Emptying): 1.9 ± 0.4 dpm × 10^3
Stomach Contents, total per stomach (Stomach Emptying): 2760 ± 69 dpm × 10^3
anorectic activity as measured by reduction in food consumption ([4]; acute meal-fed assay utilizing three diets and pyramiding dose studies, compared with hydroxycitric acid): significantly more active
carcass analysis: origin of weight loss ([4]; chronic studies): weight loss was due to reduction in body lipids
appetite suppression and reduced body weight gain ([4]; short- and long-term chronic studies, compared with hydroxycitric acid or citric acid): suppressed appetite and reduced body weight gain in mammals more efficaciously than hydroxycitric acid or citric acid
Cholesterol Synthesis, 3H2O converted (Cholesterol Synthesis): 98 % of control
Daily Food Consumption ([5]; Fa/- lean, 0.66 mmoles/kg oral, treatment day 1): 12.5 ± 1.1 g
Daily Food Consumption ([5]; Fa/- lean, 0.66 mmoles/kg oral, treatment day 2): 7.0 ± 0.9 g
Daily Food Consumption ([5]; Fa/- lean, 0.66 mmoles/kg oral, treatment day 3): 7.2 ± 0.7 g
Daily Food Consumption ([5]; Fa/- lean, 0.66 mmoles/kg oral, treatment day 4): 5.4 ± 1.1 g
Daily Food Consumption ([5]; Fa/- lean, 0.66 mmoles/kg oral, treatment day 5): 7.3 ± 1.5 g
Daily Food Consumption ([5]; Fa/- lean, 0.66 mmoles/kg oral, treatment day 6): 7.5 ± 1.3 g
Daily Food Consumption ([5]; Fa/- lean, 0.66 mmoles/kg, day 0 (pretreatment)): 10.8 ± 1.0 g
Daily Food Consumption ([5]; fa/fa obese, 0.66 mmoles/kg oral, treatment day 1): 10.7 ± 0.7 g
Daily Food Consumption ([5]; fa/fa obese, 0.66 mmoles/kg oral, treatment day 2): 5.9 ± 1.5 g
Daily Food Consumption ([5]; fa/fa obese, 0.66 mmoles/kg oral, treatment day 3): 5.8 ± 0.9 g
Daily Food Consumption ([5]; fa/fa obese, 0.66 mmoles/kg oral, treatment day 4): 5.5 ± 0.9 g
Daily Food Consumption ([5]; fa/fa obese, 0.66 mmoles/kg oral, treatment day 5): 4.9 ± 1.0 g
Daily Food Consumption ([5]; fa/fa obese, 0.66 mmoles/kg oral, treatment day 6): 5.1 ± 1.1 g
Daily Food Consumption ([5]; fa/fa obese, 0.66 mmoles/kg, day 0 (pretreatment)): 13.1 ± 1.1 g
CBWG (cumulative body weight gain) [6, 10]: 12 ± 4 g
CFC (cumulative food consumption) [6, 10]: 209 ± 10 g
FBW (final body weight) [6, 10]: 211 ± 7 g
CBWG (cumulative body weight gain) [6, 11]: -6 ± 6 g
CFC (cumulative food consumption) [6, 11]: 176 ± 9 g
FBW (final body weight) [6, 11]: 188 ± 7 g
CBWG (cumulative body weight gain) [6, 12]: -29 ± 6 g
CFC (cumulative food consumption) [6, 12]: 153 ± 4 g
FBW (final body weight) [6, 12]: 169 ± 6 g
